The numbers were not newly measured in patent publication US20230270709A1, “ANTIVIRAL PHARMACEUTICAL COMPOSITION FOR TOPICAL ADMINISTRATION” (Christian-Albrechts-Universitat Zu Kiel, priority 2020, published 2023), which cites them from elsewhere.

One data set deals with SARS-CoV-2. Particulars: Hoffmann et al. 2020.
Data set [1] deals with transmembrane protease, serine 2 (TMPRSS2) (Homo sapiens, UniProt O15393). Particulars: Zhou et al., Antiviral Research 116 (2015).
For another data set, the system named is SARS-CoV. As to conditions: pathogenic animal model for SARS-CoV infection; Zhou et al. 2015.

Where a name gives a salt, the structure may show the parent alone.

Sequence of transmembrane protease, serine 2 (TMPRSS2) (O15393 whole entry): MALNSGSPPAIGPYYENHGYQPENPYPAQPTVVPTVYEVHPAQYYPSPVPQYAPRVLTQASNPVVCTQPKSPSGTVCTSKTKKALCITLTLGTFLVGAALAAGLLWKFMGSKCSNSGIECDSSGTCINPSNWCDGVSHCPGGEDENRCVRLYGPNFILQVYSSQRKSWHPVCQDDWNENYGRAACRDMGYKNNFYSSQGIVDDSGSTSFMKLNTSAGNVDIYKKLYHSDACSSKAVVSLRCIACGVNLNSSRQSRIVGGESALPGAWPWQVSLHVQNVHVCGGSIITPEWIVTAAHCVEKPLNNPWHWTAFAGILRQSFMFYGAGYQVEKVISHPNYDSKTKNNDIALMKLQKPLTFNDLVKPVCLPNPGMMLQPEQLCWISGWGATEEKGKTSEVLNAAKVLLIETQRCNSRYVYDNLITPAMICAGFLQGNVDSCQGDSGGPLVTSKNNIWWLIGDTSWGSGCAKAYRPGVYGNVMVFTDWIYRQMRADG

As to `CN(C)C(=O)COC(=O)Cc1ccc(OC(=O)c2ccc(NC(=N)N)cc2)cc1` [camostat mesylate], in the data set with SARS-CoV-2, the “effect on SARS-CoV-2 infections of lung cells” value is recorded as “reduce SARS-CoV-2 infections of lung cells”. In the case of `N=C(N)c1ccc2cc(OC(=O)c3ccc(N=C(N)N)cc3)ccc2c1` [nafamostat mesylate], in the data set on SARS-CoV-2, the “effect on SARS-CoV-2 infections of lung cells” value is listed as “reduce SARS-CoV-2 infections of lung cells”.

With `CN(C)C(=O)COC(=O)Cc1ccc(OC(=O)c2ccc(NC(=N)N)cc2)cc1` [camostat], in data set [1], the “inhibition of TMPRSS2” value is given as “inhibit”. The “antiviral activity in animal model” value in the data set with SARS-CoV is “display antiviral activity”.
